Patent US4940723A, “Use of bis-(5-amidino-2-benzimidazolyl) methane (BABIM) to treat arthritis” (University of North Carolina, Chapel Hill, priority 1988, dated 1990)
“And” between values parts separate entries of the source, which are not always exact repeats. Equal values may be shown once.

What was measured:
hemolytic complement = conditions: in words; cited from earlier work
[1] = Dissolution in isotonic saline; type: physicochemical
Procedure: BABIM was synthesized according to established procedures. Purity of the compound was ascertained by infrared and nuclear magnetic resonance spectroscopy, thin-layer chromatography and elemental analysis. […] Solutions were prepared fresh on the day they were used.

[2] = system: PG-APS induced granulomatous hepatitis; assay: Liver weight and hepatic granulomata (PG-APS-induced granulomatous hepatitis); type: in vivo, Lewis rats
Procedure: (§1) Inbred female Lewis rats were purchased from Charles River Laboratories, Inc. Their mean body weight at the start of the study was 145 g. Arthritis was induced by a single intraperitoneal injection of the 10S fraction of purified cell wall material in PBS. The volume was 0.5 ml, and the dose of PG-APS was equivalent to 15 μg of rhamnose content per gram of body weight. For the administration of BABIM into the tail vein the animals were lightly anesthetized with ether. The inhibitor was contained in 0.1 ml of saline. Control animals were injected in the same way, but received saline only. All rats had free access to food and water. Nineteen days after the initiation of arthritis, they were killed with an overdose of ether.
(§2) After the rats were killed, autopsies were performed. The liver, spleen, kidneys, adrenal glands, and the skinned distal hind legs were saved for further examination. The livers were weighed individually, and a sample of each was frozen and held for ELISA of PG-APS fragments. All other tissues were fixed in phosphate-buffered formalin solution. The bones were decalcified in formic acid-sodium citrate solution. Sections were stained with hematoxylin and eosin.
(§3) The dosing with inhibitor was begun two days before the induction of arthritis and was continued on a daily basis through day 6. From

plasmin = conditions: in words; cited from earlier work
[3] = Toxicity observation (physical, behavioral, organ histology) in BABIM-treated rats; type: in vivo, Lewis rats
Procedure: as §2, §3

Cls = conditions: in words; cited from earlier work
granulomatous splenitis = assay: Splenic granulomatous involvement (PG-APS-induced granulomatous splenitis); type: in vivo, Lewis rats
Procedure: as §1, §2, §3
*Disease was scored on a scale of 0-4, based on the percentage of
granulomatous replacement of splenic parenchyma, where 0 = none, 1 = <25%

Clr = conditions: in words; cited from earlier work
urokinase = conditions: in words; cited from earlier work
PG-APS deposits in liver = assay: Quantification of PG-APS deposits in liver tissue (ELISA); type: in vivo, Lewis rats
Procedure: Measurements were based on a solid-phase enzyme-linked immunosorbent assay (ELISA) as known in the art. Briefly, microtiter plates were charged with group A cell wall antibodies and non-specific binding sites were blocked with human albumin. The coated walls were interacted with the tissue samples, and retention of PG-APS was determined from phosphate hydrolysis following sequential addition of affinity-purified biotinylated cell wall antibodies, avidin-alkaline phosphatase complexes and enzyme substrate. Standard curves were prepared with various amounts of the 10S PG-APS material and were used to correlate enzyme activity with levels of tissue deposits.
as §1, with “of ether. […]” for “of ether.”

PG-APS-induced arthritis [4] = assay: Clinical scoring of PG-APS-induced arthritis; type: in vivo, Lewis rats
Procedure: as §1
Severity of the arthritis was judged daily for the first 11 days after PG-APS injection and every one to three days. Involvement of each extremity was quantified on a scale from 0-4, yielding a maximum combined score of 16. Grading was restricted to the wrist and ankle joints and all joints distal from there. The individual score was based on the number of joints involved, the degree of cutaneous erythema, the extent of the swelling of the skin and periarticular soft tissue, and the enlargement and deformities of the joints.
The basic design of the experiments was as follows. Arthritis was induced in two groups of rats by the intraperitoneal application of PG-APS fragments. One group of animals received repeated injections of BABIM dissolved in saline, while the other group received saline only. The inhibitor dose of 10 mg/kg body weight was selected because it has been found effective in preliminary studies.
as §3

trypsin = conditions: in words; cited from earlier work
PG-APS-induced arthritis [5] = assay: Histological grading of the severity of PG-APS-induced arthritis (hind leg); type: in vivo, Lewis rats
Procedure: as §1, §2
For this evaluation the hind legs were used because they were more severely involved than the front legs. Both hind legs were studied, but as the disease processes were always symmetrical only one leg was scored. Included in the histologic sections were the distal tibia with the ankle joint, the tarsal bones, and the metatarsals. These were ranked on a scale of 0-4, based on the extent of bone marrow hyperplasia, the density of neutrophilic infiltration in bone and soft tissues, the degree of destruction of trabecular and cortical bone, and the magnitude of the synovial and periosteal proliferative response.
as §3

adjuvant arthritis = conditions: Sprague-Dawley rats; cited from earlier work

N=C(N)c1ccc2nc(Cc3nc4ccc(C(=N)N)cc4[nH]3)[nH]c2c1 [BABIM, bis-(5-amidino-2-benzimidazolyl) methane]
Inhibition in hemolytic complement tests (hemolytic complement): only weakly inhibitory | Solubility in isotonic saline [1]: easily dissolved | Reduction in the number of hepatic granulomata ([2]; 0.5 cm^2 liver sections, versus untreated): two-thirds | Granulomata, No. per section, Mean ± SD ([2]; liver, 0.5 cm^2 sections, n=7, P < 0.005 versus vehicle (81.8 ± 34.5)): 25.6 ± 26.3 | Percentage of centrally necrotic lesions ([2]; liver, both groups): approximately 50% | Granulomata, % with necrosis ([2]; liver, n=7, vehicle 56): 43% | Weight of Liver, Mean ± SD ([2]; n=7, day 19, P < 0.002 versus vehicle (18.5 ± 3.8)): 11.0 ± 3.5 gm | Size and makeup of hepatic granulomata ([2]; versus untreated animals): same size and makeup | Plasmin inhibition (plasmin): potent inhibitor | Physical or behavioral abnormalities caused by the drug ([3]; 10 mg/kg, repeated i.v. injections): None of the recipients of BABIM showed any physical or behavioral abnormalities | BABIM related toxicity, histological examination ([3]; liver, kidney, adrenal glands, and spleen): absence of BABIM related toxicity | Inhibition in assays of Cls (Cls): only weakly inhibitory | Inhibitor-treated animals with granulomatous inflammation in the spleen (granulomatous splenitis; all untreated rats affected): three | Splenic disease score, Mean ± SD (granulomatous splenitis; n=7, scale 0-4, not significantly different from vehicle 2.63 ± 1.3 (P > 0.2)): 1.71 ± 1.5 | BABIM recipients rated the highest splenic grade (score of 4) (granulomatous splenitis; rat, in vivo): three | BABIM recipients with no splenic disease (granulomatous splenitis; rat, in vivo): four | Inhibition in assays of Clr (Clr): only weakly inhibitory | Urokinase inhibition (urokinase): potent inhibitor | PG-APS deposits, Mean ± SD (PG-APS deposits in liver; liver, n=7, vehicle 0.226 ± 0.072): 0.237 ± 0.055 mg | Total amounts of PG-APS fragments deposited in liver (PG-APS deposits in liver; versus untreated animals): nearly the same | Effect of 10 mg/kg dose in preliminary studies (PG-APS-induced arthritis [4]; 10 mg/kg body weight, preliminary studies): effective | Suppression of clinical signs of arthritis (PG-APS-induced arthritis [4]; FIG. 1, initial response and recurrence, 10 mg/kg): suppressed the clinical signs of arthritis dramatically | Relative suppression of arthritis versus hepatic and splenic granulomatous response (PG-APS-induced arthritis [4]; arthritis component compared with granulomata): more effectively dealt with | Clinical score (individual animal) (PG-APS-induced arthritis [4]; individual BABIM-treated rats, final day (day 19), 10 mg/kg i.v. from day -2, scale 0-4 per extremity, maximum combined 16, 10 mg/kg): 0 and 1 and 2 | Treated rats completely free of arthritis at the initial peak (PG-APS-induced arthritis [4]; initial peak): 3 of the 7 treated rats | Clinical score, Mean ± SD (PG-APS-induced arthritis [4]; n=7, final day of experiment, P < 0.0001 versus vehicle (6.79 ± 2.86)): 0.43 ± 0.79 | Treated rats without symptoms during the recurrence (PG-APS-induced arthritis [4]; recurrence): five | Blockade of recurrence of the disease (PG-APS-induced arthritis [4]; versus primary response): blocked as completely as the primary response | Trypsin inhibition (trypsin): potent inhibitor | Bone marrow composition in calcaneus (PG-APS-induced arthritis [5]; FIG. 2B, day 19): Predominantly fatty marrow | Inflammation of synovial recess of ankle joint (PG-APS-induced arthritis [5]; FIG. 4B, day 19): inflammation is absent | Appearance of joints and bone marrow spaces (PG-APS-induced arthritis [5]; cell wall-injected and BABIM-treated Lewis rats): pristine appearance | BABIM-treated animals with complete absence of histological joint/bone abnormalities (PG-APS-induced arthritis [5]; day 19, FIGS. 2B, 3B, 4B): five | Histologic score (individual animal) (PG-APS-induced arthritis [5]; individual BABIM-treated rats, day 19, scale 0-4, 10 mg/kg i.v., 10 mg/kg): 0 and 1.5 and 1 | Histologic score, Mean ± SD (PG-APS-induced arthritis [5]; n=7, day 19, P < 0.0001 versus vehicle (2.81 ± 0.46)): 0.36 ± 0.63 | Joint changes in the two BABIM-treated animals that developed joint disease (PG-APS-induced arthritis [5]; versus untreated rats): on a much smaller scale

N=C(N)c1ccc2cc(OC(=O)c3ccc(N=C(N)N)cc3)ccc2c1 [FUT-175]
Influence on adjuvant arthritis (adjuvant arthritis): beneficial influence
